Assay results: patent US10352938B2, “Macrocyclic HOPO chelators” (LUMIPHORE, INC., priority 2009, dated 2019)
Like-named read-outs stand apart in the source and are kept apart here. Blank lines part the entries; values can stand above or below the molecule they belong to.

Legend:
[1] = cited from earlier work
[2] = Calculation of Eu luminescence parameters (radiative lifetime, rate constants, efficiencies); type: physicochemical; conditions: for η^Eu: efficiency of metal centred luminescence; for knr: non-radiative rate constant; for τrad: pure radiative luminescence lifetime, aqueous TRIS pH = 7.4; for kr: radiative rate constant; for η^sens: sensitization efficiency; for metal centred efficiency: TRIS buffer
Experimental: In this equation, the ηISC ηET term is termed the sensitization efficiency, ηsens (ηsens=ηISC ηET). All the luminescence parameters τR (the pure radiative luminescence lifetime), kR and knR (the radiative and non-radiative constant rate) can be deduced. These parameters were calculated for five of the octadentate complexes and the model complex that present only one species in solution at pH=7.4 and are reported in Table 6.

[3] = cited from earlier work; remark: listed apart in the source
[4] = UV/visible absorption spectroscopy of Eu(III) complexes in TRIS buffer; type: physicochemical; conditions: for λ: absorption maximum
Source text: Extinction Coefficient. A series of solutions of varied concentrations will be prepared from the solids based on mass and purity. The absorbance of each of these solutions at both 340 nm and at the appropriate acceptor wavelength will be measured and plotted according to Beer's Law (A=εcL where A is absorbance, ε is the extinction coefficient in M^−1 cm^−1, c is concentration, and L is path length in cm) with the fitted linear regression slope equal to […] on a plot of A as a function of C.
Each of the spectra have absorption maxima around 335-340 nm (FIG. 2). Those bands are composed of two electronic transitions; at higher energy, a purely π-π* transition and, at slightly lower energy (around ca. 320 nm), a π-π* transition with some n-π* character, as evidenced previously from TD-DFT calculations. […] This interaction gives maxima blue-shifting from 341 nm for [Eu(H(2,2)-1,2-HOPO)]^0 to 334 nm for [Eu(H(17O5,2)-1,2-HOPO)]^0 (as low as 332 nm for)[Eu(5LIN^Me-1,2HOPO)2]^0).

[5] = Triplet excited state energy from phosphorescence of Gd complexes at 77K; type: physicochemical; conditions: solid matrix (methanol/ethanol 1/4), using the Gd complexes
Experimental: Estimation of the energies of the ligand based triplet excited state were determined using the Gd(III) complexes. Gadolinium was chosen because it is a 4f^7 lanthanide cation having a similar 4f electronic configuration and size as the europium cation (4f^6), but lacking an accessible metal based low energy electronic excited state. At room temperature, only a broad weak emission centered between 380-400 nm can be seen for the Gd(III) complexes. […] At 77K, in solid matrix, an emission band at approx. 500 nm can be seen (FIG. 8). This emission, red-shifted compared to the singlet excited state, can be assigned to phosphorescence from the triplet excited state, lower in energy than the singlet excited state observed at room temperature. Selective time gated phosphorescence spectra (delay 0.1 ms) of the gadolinium complexes at 77K are depicted in FIG. 8.

[6] = Luminescence lifetimes (TRIS buffer, deuterated water, 77K) and inner sphere water number q; conditions: for τ^D / τ (77K): first component; for q / q, second species: inner sphere water molecules; for q: first species
Experimental: Fluorescent decay signals can be acquired using an IBH DataStation Hub photon counting module and data analysis performed using the commercially available DAS 6 decay analysis software package from HORIBA Jobin Yvon IBH. Goodness of fit will be assessed by minimizing the reduced chi squared function, χ2, and a visual inspection of the weighted residuals. Each trace will use at least 10,000 points and the reported lifetime values result from at least three independent measurements.
In addition to the steady state emission spectra, the luminescence quantum yields and luminescence lifetimes of the Eu(III) complexes were also measured in aqueous solution with 0.1 M TRIS buffer pH=7.4 and in deuterated solution to estimate the number of inner sphere water molecule (i.e. q) using the improved Horrock's equations.
Luminescence lifetimes were also determined at 77K, in a solid matrix (Table 5), which have allowed us to determine whether back energy transfer between the donor triplet excited state and the acceptor manifold excited state of the lanthanide is present, or alternately whether quenching via low lying LMCT state occurs.

[7] = quantum yield; cited from earlier work
[8] = competitive batch titration using DTPA in 0.1M TRIS pH = 7.4 and 0.1M KCl; cited from earlier work
[9] = Luminescence quantum yield, emission and brightness in aqueous 0.1 M TRIS buffer; type: physicochemical; conditions: for øTot: 0.1M TRIS buffer pH = 7.4; for Brightness: at maximum absorption, product of quantum yield and molar absorption coefficient, 0.1 M TRIS pH = 7.4; for overall quantum yield (in words): related to inner-sphere coordinated water
Experimental: Quantum Yield. Quantum yield will be measured using established methods. Fluorescence quantum yield Q are measured in diluted solution with an optical density lower than 0.1 using the following equation Qx/Qr=[Ar(λr)/Ax(λx)][nx^2/nr^2][Dx/Dr] were A is the absorbance at the excitation wavelength (λ), n the refractive index and D the integrated luminescence intensity. Subscripts “r” and “x” stand for reference and sample, respectively. References will be a quinine bisulfate in 1N sulfuric acid in aqueous solution (Qt=0.546)^1 and Ru(bpy)3 2C1 complexes in water solution (Qr=0.028)^2 for all complexes. A plot of integrated emission intensity (i.e. Dr) versus absorbance (i.e. Ar(λr)) yields a linear plot with a slope which can be equated to the reference quantum yield Qr. By analogy, for the unknown sample, a plot of integrated emission intensity (i.e. Dx) versus absorbance (i.e. Ax(λx)) yields a linear plot and Qx can then be evaluated. A minimum of at least two independent measurements will be averaged to derive a reliable value.

[10] = Stability titration (pEu) by competitive batch titration using DTPA; type: physicochemical; conditions: for pEu: competitive batch titration using DTPA in 0.1M TRIS pH = 7.4 and 0.1M KCl; for pEu value as compared to DTPA / thermodynamic stability in aqueous solution: in words; for thermodynamic stability in aqueous solution: pH=7.4
Experimental: Stability Titrations. The general procedure used to determine the pEu values of ligands was adapted from an already described study using Gd and are similar to that already reported for other complexes. Different volumes of a standardized DTPA stock solution were added to solutions of constant ligand, metal, and electrolyte concentrations. Concentrations of complexed ligand in each solution were determined by subtracting the remaining luminescence intensity after addition of DTPA to the initial luminescence intensity at identical pH and those concentrations were used as references for the analysis. Stability of compounds towards mM concentrations of EDTA and divalent cations will be assessed by incubation of the proposed molecules at nM concentration at room temperature in aqueous solutions of test ions. Time Resolved Fluorescent signal will be assessed at the outset of experiment and monitored over a minimum of 24 hours to determine signal change.

[11] = TRIS buffer pH = 7.4, listed as [Eu(H(2,2)-1,2HOPO)]^0
[12] = listed as [Eu(H(2,2)-1,2HOPO)]^0
[13] = extinction coefficient, in M-1·cm-1
[14] = solid matrix at 77K (methanol/ethanol 1/4)
[15] = aqueous TRIS pH = 7.4, complexes with only one species

metal centred efficiency [2]: around 50%
η^Eu [2]: 0.528
knr [2]: 674 s⁻¹
τrad [2]: 1326 μs
kr [2]: 754 s⁻¹
ε ([4]; TRIS buffer pH = 7.4): 15,200 M^−1 · cm^−1
λ^maxabs ([4]; TRIS buffer pH = 7.4): 336 nm
T0-0 (triplet excited state energy) [5]: 22,020 cm^−1
τ ([6]; aqueous TRIS pH = 7.4): 700 μs
τ^D ([6]; deuterated solution): 961 μs
q ([6]; improved Horrock's equations): 0.1
τ (77K) [6, 14]: 819 μs
thermodynamic stability in aqueous solution [10]: high thermodynamic stabilities
øTot [9]: 0.192
ϕTot [9, 15]: 0.192
Brightness [9]: 2920 M⁻¹ cm⁻¹
SMILES: O=C(NCCN(CCNC(=O)c1cccc(=O)n1O)CCOCCOCCOCCOCCN(CCNC(=O)c1cccc(=O)n1O)CCNC(=O)c1cccc(=O)n1O)c1cccc(=O)n1O.[Eu] [[Eu(H(14O4,2)-1,2HOPO)]^0]
η^sens [2]: 0.364

metal centred efficiency [2]: around 50%
η^Eu [2]: 0.522
knr [2]: 679 s⁻¹
τrad [2]: 1348 μs
kr [2]: 742 s⁻¹
ε ([4]; TRIS buffer pH = 7.4): 15,000 M^−1 · cm^−1
λ^maxabs ([4]; TRIS buffer pH = 7.4): 336 nm
λ^maxabs ([4]; TRIS buffer pH = 7.4, listed as [Eu(H(17O5,2)-1,2-HOPO)]^0): 334 nm
T0-0 (triplet excited state energy) [5]: 21,690 cm^−1
τ ([6]; aqueous TRIS pH = 7.4): 704 μs
τ^D ([6]; deuterated solution): 962 μs
q ([6]; improved Horrock's equations): 0.1
τ (77K) [6, 14]: 826 μs
thermodynamic stability in aqueous solution [10]: high thermodynamic stabilities
øTot [9]: 0.196
øTot ([9]; listed as [Eu(H(17O5,2)-1,2-HOPO)]^0): 0.197
ϕTot [9, 15]: 0.196
Brightness [9]: 2940 M⁻¹ cm⁻¹
SMILES: O=C(NCCN(CCNC(=O)c1cccc(=O)n1O)CCOCCOCCOCCOCCOCCN(CCNC(=O)c1cccc(=O)n1O)CCNC(=O)c1cccc(=O)n1O)c1cccc(=O)n1O.[Eu] [[Eu(H(17O5,2)-1,2HOPO)]^0]
η^sens [2]: 0.375

Continued, molecule first:

SMILES: O=C(NCCN(CCCCN(CCNC(=O)c1cccc(=O)n1O)CCNC(=O)c1cccc(=O)n1O)CCNC(=O)c1cccc(=O)n1O)c1cccc(=O)n1O [Eu(H2)]
τ (D2O) ([1]; D2O, first component where two are printed): 1222 μs
τ (H2O) ([1]; H2O, first (longer) component): 480 μs
q ([1]; number of inner sphere water molecules, first species): 1.1
η^Eu ([2]; listed as [Eu(H(22)-1,2-HOPO)]): 0.160
knr ([2]; listed as [Eu(H(22)-1,2-HOPO)]): 1750 s⁻¹
τrad ([2]; listed as [Eu(H(22)-1,2-HOPO)]): 3000 μs
kr ([2]; listed as [Eu(H(22)-1,2-HOPO)]): 333 s⁻¹
η^sens ([2]; listed as [Eu(H(22)-1,2-HOPO)]): 0.225
λ ([3]; absorption maximum): 341 nm
ε ([3]; extinction coefficient): 18,200 M^1 cm^−1
λ^maxabs ([4]; TRIS buffer pH = 7.4, listed as [Eu(H(2,2)-1,2-HOPO)]^0): 341 nm
ε [4, 11]: 18,200 M^−1 · cm^−1
λ^maxabs [4, 11]: 341 nm
T0-0 (triplet excited state energy) [5, 12]: 21,980 cm^−1
τ ([6]; aqueous TRIS pH = 7.4, listed as [Eu(H(22)-1,2-HOPO)]): 480 μs
τ^D ([6]; deuterated solution, listed as [Eu(H(2,2)-1,2HOPO)]^0): 1222 μs
q ([6]; improved Horrock's equations, listed as [Eu(H(2,2)-1,2HOPO)]^0): 1.1
τ (77K) ([6]; solid matrix at 77K (methanol/ethanol 1/4), listed as [Eu(H(2,2)-1,2HOPO)]^0): 914 μs
ϕEu [7]: 0.036
pEu [8]: 21.2
øTot [9, 12]: 0.036
ϕTot ([9]; aqueous TRIS pH = 7.4, complexes with only one species, listed as [Eu(H(22)-1,2-HOPO)]): 0.036
Brightness ([9]; listed as [Eu(H(2,2)-1,2-HOPO)]^0): 655 M⁻¹ cm⁻¹
Brightness [9, 12]: 655 M⁻¹ cm⁻¹
overall quantum yield (in words) [9]: low quantum yields

SMILES: O=C(NCCN(CCNC(=O)c1cccc(=O)n1O)CCOCCOCCN(CCNC(=O)c1cccc(=O)n1O)CCNC(=O)c1cccc(=O)n1O)c1cccc(=O)n1O [Eu(H8-2)]
sensitization process efficiency [2]: 28.4%
η^Eu [2]: 0.395
knr [2]: 869 s⁻¹
τrad [2]: 1770 μs
kr [2]: 566 s⁻¹
η^sens [2]: 0.284
ε ([4]; TRIS buffer pH = 7.4): 15,350 M^−1 · cm^−1
λ^maxabs ([4]; TRIS buffer pH = 7.4): 336 nm
λ [4]: 336 nm
ε [4, 13]: 15,350
T0-0 (triplet excited state energy) [5]: 22,320 cm^−1
τ ([6]; aqueous TRIS pH = 7.4): 697 μs
τ^D ([6]; deuterated solution): 913 μs
τ^D ([6]; deuterated water): 913 μs
τ ([6]; first (longer) component): 697 μs
q ([6]; improved Horrock's equations): 0
τ (77K) [6, 14]: 748 μs
pEu [10]: 20.4
pEu value as compared to DTPA [10]: increased
øTot [9]: 0.112
ϕTot [9, 15]: 0.112
ϕTot ([9]; aqueous quantum yield): 0.112
Brightness [9]: 1720 M⁻¹ cm⁻¹
overall quantum yield (in words) [9]: comparatively high quantum yields

SMILES: O=C(NCCN(CCNC(=O)c1cccc(=O)n1O)CCOCCN(CCNC(=O)c1cccc(=O)n1O)CCNC(=O)c1cccc(=O)n1O)c1cccc(=O)n1O.[Eu] [Eu(H5-1)]
ε ([4]; TRIS buffer pH = 7.4): 15,900 M^−1 · cm^−1
λ^maxabs ([4]; TRIS buffer pH = 7.4): 337 nm
λ [4]: 337 nm
ε [4, 13]: 15,900
T0-0 (triplet excited state energy) [5]: 22,000 cm^−1
τ^D ([6]; deuterated solution): 825; μs
τ^D, second component ([6]; deuterated solution, second component): 462 μs
τ^D ([6]; deuterated water): 825 μs
τ^D, second component ([6]; deuterated water, second component): 438 μs
τ ([6]; first (longer) component): 651 μs
q ([6]; improved Horrock's equations): 0;
q [6]: 0
q, second species [6]: 0.8
q, second species ([6]; listed as [Eu(H(5O,2)-1,2HOPO)]^0): 1.1
τ, second component ([6]; second (shorter) component): 304 μs
τ (77K) [6, 14]: 823; μs
τ (77K), second component ([6]; solid matrix at 77K (methanol/ethanol 1/4), second component): 608 μs
pEu [10]: 19.2
pEu value as compared to DTPA [10]: increased
øTot [9]: 0.067
ϕTot ([9]; aqueous quantum yield): 0.067
Brightness [9]: 1065 M⁻¹ cm⁻¹
overall quantum yield (in words) [9]: low quantum yields
